Assay results taken from PMC7909954 (eLife, 2021).
“And” between values parts separate entries of the source, which are not always exact repeats. Equal entries are not always repeated. Where two headings read alike, the source gives them in different places.

How the values were obtained:
[1] = test system: MOR KO, KOR KO and DOR KO mice; experiment: 55°C warm-water tail-withdrawal assay in opioid receptor knock out mice; type: in vivo, mouse
mDOR [2] = molecular target: T1, mDOR (Mus musculus, UniProt P32300); conditions: binding assays
MOR [3] = molecular target: T2, MOR (Homo sapiens, UniProt P35372)
rKOR [4] = molecular target: T3, rKOR (Rattus norvegicus, UniProt P34975); conditions: BRET, rodent receptors
KOR [5] = molecular target: T4, KOR (Homo sapiens, UniProt P41145)
MOR [6] = molecular target: T2, MOR; experiment: cell-based; conditions: HEK-293T, read-out: Emax% cAMP inhibition hMOR
KOR [7] = molecular target: T4, KOR; experiment: cell-based
DOR [8] = molecular target: T5, DOR (Homo sapiens, UniProt P41143); experiment: cell-based
Y312W-hKOR = Y312W-hKOR (Homo sapiens, UniProt P41145, Y312W); experiment: cell-based; conditions: read-out: Emax% cAMP inhibition Y312W-hKOR
KOR [9] = molecular target: T4, KOR; experiment: cell-based; remark: listed apart in the source
DOR [10] = molecular target: T5, DOR; experiment: cell-based; conditions: for EC50: Tango
mMOR [11] = molecular target: T6, mMOR (Mus musculus, UniProt P42866); experiment: cell-based
rKOR [12] = molecular target: T3, rKOR; experiment: cell-based
mDOR [13] = molecular target: T1, mDOR; experiment: cell-based
mMOR [14] = molecular target: T6, mMOR; experiment: biochemical
mKOR [15] = molecular target: T7, mKOR (Mus musculus, UniProt P33534); experiment: biochemical
mMOR [16] = molecular target: T6, mMOR; experiment: biochemical; remark: listed apart in the source
mKOR [17] = molecular target: T7, mKOR; experiment: biochemical; remark: listed apart in the source
mDOR [18] = molecular target: T1, mDOR; experiment: biochemical; conditions: read-out: Emax mDOR [35S]GTPγS
mMOR [19] = molecular target: T6, mMOR; experiment: cell-based; design: expressed in transfected cells; host or cells: HEK-293T
[20] = DOR KO mice, 100 nmol i.c.v., 40 min, single mice and mean (n=8)
[21] = DOR KO mice, 100 nmol i.c.v., 110 min, single mice and mean (n=8)
[22] = MOR KO mice, 100 nmol i.c.v., 60 min, single mice and mean (n=8)
[23] = MOR KO mice, 100 nmol i.c.v., 70 min, single mice and mean (n=8)
[24] = MOR KO mice, 100 nmol i.c.v., 80 min, single mice and mean (n=8)
[25] = MP1207 30 nmol icv, MP1208 35 nmol icv
[26] = transduction coefficient log(T/KA)

T1 sequence (P32300 whole entry): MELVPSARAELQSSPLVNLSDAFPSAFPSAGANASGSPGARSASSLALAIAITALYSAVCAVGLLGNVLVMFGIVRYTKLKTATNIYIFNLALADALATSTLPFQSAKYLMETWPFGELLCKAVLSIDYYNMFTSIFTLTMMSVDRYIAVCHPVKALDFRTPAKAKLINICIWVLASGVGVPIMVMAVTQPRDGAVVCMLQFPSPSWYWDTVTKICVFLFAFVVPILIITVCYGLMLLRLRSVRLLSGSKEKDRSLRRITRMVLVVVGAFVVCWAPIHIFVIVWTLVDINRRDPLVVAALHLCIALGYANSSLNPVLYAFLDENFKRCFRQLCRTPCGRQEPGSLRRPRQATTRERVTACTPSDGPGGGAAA
T6 sequence (P42866 whole entry): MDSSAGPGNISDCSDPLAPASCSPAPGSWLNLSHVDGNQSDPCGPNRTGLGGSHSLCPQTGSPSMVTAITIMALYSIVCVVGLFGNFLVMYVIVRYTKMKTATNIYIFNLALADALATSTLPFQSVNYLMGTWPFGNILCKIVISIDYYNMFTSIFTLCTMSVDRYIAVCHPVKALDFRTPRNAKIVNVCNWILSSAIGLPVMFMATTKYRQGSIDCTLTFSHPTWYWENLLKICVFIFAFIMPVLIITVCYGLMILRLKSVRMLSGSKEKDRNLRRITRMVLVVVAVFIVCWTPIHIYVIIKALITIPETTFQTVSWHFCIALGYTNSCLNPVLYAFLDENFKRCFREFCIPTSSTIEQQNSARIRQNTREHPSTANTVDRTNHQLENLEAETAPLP
T7 sequence (P33534 whole entry): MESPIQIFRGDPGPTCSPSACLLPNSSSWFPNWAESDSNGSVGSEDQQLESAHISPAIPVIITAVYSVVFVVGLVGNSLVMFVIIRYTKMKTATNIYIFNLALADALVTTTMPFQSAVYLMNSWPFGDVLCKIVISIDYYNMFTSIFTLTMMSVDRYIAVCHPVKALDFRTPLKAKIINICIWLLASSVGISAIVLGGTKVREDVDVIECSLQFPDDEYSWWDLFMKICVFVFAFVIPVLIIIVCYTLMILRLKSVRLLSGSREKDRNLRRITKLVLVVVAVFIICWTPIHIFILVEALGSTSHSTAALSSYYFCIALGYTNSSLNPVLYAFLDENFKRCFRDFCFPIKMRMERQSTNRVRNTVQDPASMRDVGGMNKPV
T5 sequence (P41143 whole entry): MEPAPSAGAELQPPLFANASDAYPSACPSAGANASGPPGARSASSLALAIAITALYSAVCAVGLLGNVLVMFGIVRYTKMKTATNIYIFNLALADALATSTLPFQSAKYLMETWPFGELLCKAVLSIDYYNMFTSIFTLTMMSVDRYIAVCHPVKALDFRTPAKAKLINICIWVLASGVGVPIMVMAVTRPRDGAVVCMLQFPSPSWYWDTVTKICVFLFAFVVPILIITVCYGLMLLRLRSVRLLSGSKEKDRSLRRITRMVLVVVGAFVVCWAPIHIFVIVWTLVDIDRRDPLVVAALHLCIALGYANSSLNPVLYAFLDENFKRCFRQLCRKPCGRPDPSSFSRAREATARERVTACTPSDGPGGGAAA
T4 sequence (P41145 whole entry): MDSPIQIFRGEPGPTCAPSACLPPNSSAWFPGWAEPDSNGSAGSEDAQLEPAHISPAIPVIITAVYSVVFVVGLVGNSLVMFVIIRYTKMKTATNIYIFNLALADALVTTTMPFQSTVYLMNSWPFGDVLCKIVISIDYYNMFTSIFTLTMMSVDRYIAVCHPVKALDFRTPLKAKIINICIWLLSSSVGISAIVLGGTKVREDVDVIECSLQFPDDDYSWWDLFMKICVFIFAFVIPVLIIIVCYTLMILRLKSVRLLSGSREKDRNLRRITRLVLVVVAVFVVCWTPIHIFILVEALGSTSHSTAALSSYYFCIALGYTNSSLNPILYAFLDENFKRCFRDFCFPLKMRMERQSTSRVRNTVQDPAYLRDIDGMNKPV
T3 sequence (P34975 whole entry): as the sequence (P33534 whole entry) above, with D11E, S17A, S51P, A308V counted along it
T2 sequence (P35372 whole entry): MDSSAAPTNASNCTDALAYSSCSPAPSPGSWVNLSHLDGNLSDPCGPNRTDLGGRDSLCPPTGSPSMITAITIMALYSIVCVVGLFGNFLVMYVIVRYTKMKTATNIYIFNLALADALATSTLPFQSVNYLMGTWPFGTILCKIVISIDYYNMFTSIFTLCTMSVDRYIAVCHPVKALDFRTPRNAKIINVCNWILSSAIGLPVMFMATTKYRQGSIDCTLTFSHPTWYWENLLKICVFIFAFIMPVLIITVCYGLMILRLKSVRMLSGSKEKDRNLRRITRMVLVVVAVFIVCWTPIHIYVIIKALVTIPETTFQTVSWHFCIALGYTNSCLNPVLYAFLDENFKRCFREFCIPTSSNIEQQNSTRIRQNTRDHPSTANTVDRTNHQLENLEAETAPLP
Chain of Y312W-hKOR (P41145 whole entry Y312W): as the sequence (P41145 whole entry) above, with Y312W counted along it

N=C(N)NCc1cccc(C(=O)N[C@@H]2CCC3C4Cc5ccc(O)c6c5[C@@]3(CCN4CC3CC3)C2O6)c1 (stereo partly drawn) [MP1208, N-((7R,12bS)−3-(Cyclopropylmethyl)−9-hydroxy-2,3,4,4a,5,6,7,7a-octahydro-1H-4,12-methanobenzofuro[3,2-e]isoquinolin-7-yl)−3-(guanidinomethyl)benzamide]
30 min (tail-withdrawal latency) ([1]; DOR KO mice, 100 nmol i.c.v., 30 min, single mice and mean (n=8)): 15 s and 8 s and 14.125 s | 40 min (tail-withdrawal latency) [1, 20]: 15 s and 14.7 s and 12.1 s and 14.6 s | %A-40 min (% antinociception) [1, 20]: 100% and 97.83% and 77.34% and 96.8962% | %A-100 min (% antinociception) ([1]; DOR KO mice, 100 nmol i.c.v., 100 min, single mice and mean (n=8)): 0% and 3.7% and 0.72% and 6.25% and 1.334% | 110 min (tail-withdrawal latency) [1, 21]: 1.4 s and 1.9 s and 1.3 s and 1.6 s and 1.5 s and 2.2 s and 1.5625 s | %A-110 min (% antinociception) [1, 21]: 0% and 2.96% and 2.9% and 0.7325% | 60 min (tail-withdrawal latency) [1, 22]: 1.3 s and 1.2 s and 1.5 s and 1.7 s and 1.4 s and 1.4375 s | %A-60 min (% antinociception) [1, 22]: 0% and 2.17% and 3.62% and 2.16% and 1.446% | 70 min (tail-withdrawal latency) [1, 23]: 1.3 s and 1.4 s and 1.8 s and 1.2 s and 1.35 s | %A-70 min (% antinociception) [1, 23]: 0% and 0.72% and 2.94% and 0.7275% | 80 min (tail-withdrawal latency) [1, 24]: 1.3 s and 1.1 s and 1.9 s and 1.2 s and 1.2875 s | %A-80 min (% antinociception) [1, 24]: 0% and 5.07% and 0.72% and 0.7238% | antinociception in DOR KO mice vs WT [1, 25]: remained intact | antinociception in KOR KO mice vs WT [1, 25]: attenuated | antinociception in MOR KO mice vs WT [1, 25]: attenuated | selectivity for MOR and KOR over DOR (mDOR [2]): more than 40 fold | arrestin recruitment at hMOR (in words) (MOR [3]): completely abolished | arrestin recruitment at rKOR (in words) (rKOR [4]): No recruitment of βarrestin-2 | ΔΔlog RA (cAMP-Tango) hKOR (KOR [5]): 1.35±0.022 | Bias factor (cAMP-Tango) hKOR (KOR [5]; >1 G protein bias, <1 arrestin bias, vs U50,488h): 22 | Log RA cAMP hKOR (KOR [5]; [26]): 9.83±0.004 | LogRA Tango hKOR (KOR [5]; [26]): 7.447±0.020 | ΔlogRA Tango hKOR (KOR [5]; vs U50,488h): -0.697±0.022 | ΔlogRA cAMP hKOR (KOR [5]; vs U50,488h): 0.65±0.005 | Emax (MOR [6]): 42 ± 1.3% | EC50 (KOR [7]; EC50 cAMP inhibition hKOR): 0.14 nM | Emax (KOR [7]; HEK-293T, read-out: Emax% cAMP inhibition hKOR): 96 ± 1.9% | EC50 (DOR [8]; EC50 cAMP inhibition hDOR): 2.49 nM | Emax (DOR [8]; HEK-293T, read-out: Emax% cAMP inhibition hDOR): 39 ± 1.8% | Emax (Y312W-hKOR): 97 ± 1% | EC50 (KOR [9]; EC50 arrestin recruitment (Tango) hKOR): 16.4 nM | Emax (KOR [9]; HTLA, read-out: Emax% arrestin recruitment (Tango) hKOR): 48 ± 2.4% | EC50 (KOR [9]; pEC50 arrestin recruitment (Tango) hKOR, ± SEM): 16.2 nM | EC50 (DOR [10]; EC50 arrestin recruitment hDOR): 3620 nM | Emax (DOR [10]; HTLA, read-out: Emax% arrestin recruitment hDOR): 62 ± 16.7% | EC50 (DOR [10]; pEC50 arrestin recruitment hDOR, ± SEM): 3160 nM | EC50 (mMOR [11]; EC50 G protein activation (BRET) mMOR): 2.27 nM | Emax (mMOR [11]; HEK-293T, read-out: Emax% G protein activation (BRET) mMOR): 41 ± 3% | EC50 (rKOR [12]): 1.07 nM | Emax (rKOR [12]; HEK-293T, read-out: Emax% G protein activation (BRET) rKOR): 40 ± 2.4% | EC50 (mDOR [13]; EC50 G protein activation (BRET) mDOR): 26.6 nM | Emax (mDOR [13]; HEK-293T, read-out: Emax% G protein activation (BRET) mDOR): 58 ± 3.3% | Ki (mMOR [14]): 0.34 ± 0.01 nM | Ki (mKOR [15]): 0.28 ± 0.02 nM | EC50 (mMOR [16]; EC50 mMOR [35S]GTPγS, ± SEM): 1.1 nM and 1.13 nM | Emax (mMOR [16]; read-out: Emax mMOR [35S]GTPγS): 54 ± 0.7% | EC50 (mKOR [17]; EC50 mKOR [35S]GTPγS, ± SEM): 1.4 nM and 1.36 nM | Emax (mKOR [17]; read-out: Emax mKOR [35S]GTPγS): 43 ± 0.8% | Emax (mDOR [18]): 10 to 15% | arrestin recruitment at mMOR (in words) (mMOR [19]): No recruitment of βarrestin-2
